Source: PubChem BioAssay AID1963984 (Molecular Pharmacology Branch, DTP, NCI, 2024)

System: 233499-124-R-J3-PDC spheroids with HUVEC/MSC, viability
Assay: Anticancer human tumor 233499-124-R-J3-PDC patient-derived colon adenocarcinoma cell line growth inhibition [PI3K]
Details: for IC50: curve of first compound; for viability, T/C: stronger effect = lower value
How it was run: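 Complex 3D spheroids (cancer cells + endothelial HUVEC + mesenchymal stem cells); drug pairs of targeted agent x inavolisib/alpelisib/duvelisib/copanlisib; half-log series from ~Cmax, max 10 microM if Cmax unknown; endpoint viability.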

[1] = second compound 0.0316 µM, first compound 0.0316 µM
[2] = second compound 0.0316 µM, first compound 0.1 µM
[3] = second compound 0.0316 µM, first compound 0.316 µM
[4] = second compound 0.0316 µM, first compound 1 µM
[5] = second compound 0.0316 µM, first compound 3.16 µM
[6] = second compound 0.0316 µM, first compound 10 µM
[7] = second compound 0.1 µM, first compound 0.0316 µM
[8] = second compound 0.1 µM, first compound 0.1 µM
[9] = second compound 0.1 µM, first compound 0.316 µM
[10] = second compound 0.1 µM, first compound 1 µM
[11] = second compound 0.1 µM, first compound 3.16 µM
[12] = second compound 0.1 µM, first compound 10 µM
[13] = second compound 0.316 µM, first compound 0.0316 µM
[14] = second compound 0.316 µM, first compound 0.1 µM
[15] = second compound 0.316 µM, first compound 0.316 µM
[16] = second compound 0.316 µM, first compound 1 µM
[17] = second compound 0.316 µM, first compound 3.16 µM
[18] = second compound 0.316 µM, first compound 10 µM
[19] = second compound 1 µM, first compound 0.0316 µM
[20] = second compound 1 µM, first compound 0.1 µM
[21] = second compound 1 µM, first compound 0.316 µM
[22] = second compound 1 µM, first compound 1 µM
[23] = second compound 1 µM, first compound 3.16 µM
[24] = second compound 1 µM, first compound 10 µM
[25] = second compound 3.16 µM, first compound 0.0316 µM
[26] = second compound 3.16 µM, first compound 0.1 µM
[27] = second compound 3.16 µM, first compound 0.316 µM
[28] = second compound 3.16 µM, first compound 1 µM
[29] = second compound 3.16 µM, first compound 3.16 µM
[30] = second compound 3.16 µM, first compound 10 µM
[31] = second compound 10 µM, first compound 0.0316 µM
[32] = second compound 10 µM, first compound 0.1 µM
[33] = second compound 10 µM, first compound 0.316 µM
[34] = second compound 10 µM, first compound 1 µM
[35] = second compound 10 µM, first compound 3.16 µM
[36] = second compound 10 µM, first compound 10 µM
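Note: spheroids exposed to agents for seven days before readout.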
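Throughout, for viability, T/C: percent viability relative to DMSO vehicle control taken as 100%.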

**Q.** What does the source list for `CC(Cn1ccc(-c2ccc(C#N)c(Cl)c2)n1)NC(=O)c1cc(C(C)O)[nH]n1` (stereo unspecified) + Cc1nc(NC(=O)N2CCCC2C(N)=O)sc1-c1ccnc(C(C)(C)C(F)(F)F)c1?
**A.** IC50 (second compound 0.0316 µM): > 10000 nM; IC50 (second compound 0.1 µM): > 10000 nM; IC50 (second compound 0.316 µM): > 10000 nM; IC50 (second compound 1 µM): > 10000 nM; IC50 (second compound 3.16 µM): 5950 nM; IC50 (second compound 10 µM): < 31.6 nM; viability, T/C [1]: 88.9%; viability, T/C [2]: 81.6%; viability, T/C [3]: 101%; viability, T/C [4]: 97.3%; viability, T/C [5]: 95.6%; viability, T/C [6]: 85.6%; viability, T/C [7]: 102%; viability, T/C [8]: 106%; viability, T/C [9]: 98.7%; viability, T/C [10]: 108%; viability, T/C [11]: 72.6%; viability, T/C [12]: 92.5%; viability, T/C [13]: 55.1%; viability, T/C [14]: 74.3%; viability, T/C [15]: 105%; viability, T/C [16]: 100%; viability, T/C [17]: 86.7%; viability, T/C [18]: 77.6%; viability, T/C [19]: 77.2%; viability, T/C [20]: 76.5%; viability, T/C [21]: 83.7%; viability, T/C [22]: 50.5%; viability, T/C [23]: 63.6%; viability, T/C [24]: 81.9%; viability, T/C [25]: 61.8%; viability, T/C [26]: 53.8%; viability, T/C [27]: 59.7%; viability, T/C [28]: 64.6%; viability, T/C [29]: 39.6%; viability, T/C [30]: 52.5%; viability, T/C [31]: 30.7%; viability, T/C [32]: 33.9%; viability, T/C [33]: 35%; viability, T/C [34]: 42.2%; viability, T/C [35]: 21.9%; viability, T/C [36]: 38.9%

**Q.** With `CC1(C)CCC(Nc2ncc(C(F)(F)F)c(-c3c[nH]c4c(P(C)(C)=O)c(C#N)ccc34)n2)CN1` (stereo unspecified) + Cc1nc(NC(=O)N2CCCC2C(N)=O)sc1-c1ccnc(C(C)(C)C(F)(F)F)c1 as the compound, how does the IC50 (second compound 0.0316 µM) read?
**A.** 66.4 nM

**Q.** What about the IC50 (second compound 0.1 µM) of the same compound?
**A.** 32.6 nM

**Q.** What about the IC50 (second compound 0.316 µM) of the same compound?
**A.** 154 nM

**Q.** And the IC50 (second compound 1 µM)?
**A.** 62.3 nM

**Q.** What about the IC50 (second compound 3.16 µM) of the same compound?
**A.** < 31.6 nM

**Q.** What about the IC50 (second compound 10 µM) of the same compound?
**A.** < 31.6 nM

**Q.** What about the viability, T/C [1] of the same compound?
**A.** 65.2%

**Q.** And the viability, T/C [2]?
**A.** 32%

**Q.** And the viability, T/C [3]?
**A.** 32.9%

**Q.** What about the viability, T/C [4] of the same compound?
**A.** 34.6%

**Q.** And the viability, T/C [5]?
**A.** 25.1%

**Q.** And the viability, T/C [6]?
**A.** 6.03%

**Q.** And the viability, T/C [7]?
**A.** 51.6%

**Q.** And the viability, T/C [8]?
**A.** 41.4%

**Q.** And the viability, T/C [9]?
**A.** 29.3%

**Q.** What about the viability, T/C [10] of the same compound?
**A.** 25.1%

**Q.** And the viability, T/C [11]?
**A.** 19.8%

**Q.** And the viability, T/C [12]?
**A.** 2.83%

**Q.** What about the viability, T/C [13] of the same compound?
**A.** 54.8%

**Q.** And the viability, T/C [14]?
**A.** 76.9%

**Q.** And the viability, T/C [15]?
**A.** 23.8%

**Q.** And the viability, T/C [16]?
**A.** 31.1%

**Q.** And the viability, T/C [17]?
**A.** 16.6%

**Q.** And the viability, T/C [18]?
**A.** 3.57%

**Q.** What about the viability, T/C [19] of the same compound?
**A.** 69%

**Q.** And the viability, T/C [20]?
**A.** 34.2%

**Q.** And the viability, T/C [21]?
**A.** 24%

**Q.** And the viability, T/C [22]?
**A.** 21.9%

**Q.** And the viability, T/C [23]?
**A.** 29.1%

**Q.** What about the viability, T/C [24] of the same compound?
**A.** 2.22%

**Q.** And the viability, T/C [25]?
**A.** 52.1%

**Q.** What about the viability, T/C [26] of the same compound?
**A.** 34.9%

**Q.** What about the viability, T/C [27] of the same compound?
**A.** 31%

**Q.** And the viability, T/C [28]?
**A.** 18.4%

**Q.** And the viability, T/C [29]?
**A.** 15.9%

**Q.** And the viability, T/C [30]?
**A.** 0.85%

**Q.** What about the viability, T/C [31] of the same compound?
**A.** 16.1%

**Q.** What about the viability, T/C [32] of the same compound?
**A.** 16.2%

**Q.** What about the viability, T/C [33] of the same compound?
**A.** 25.9%

**Q.** And the viability, T/C [34]?
**A.** 27.1%

**Q.** And the viability, T/C [35]?
**A.** 10.1%

**Q.** And the viability, T/C [36]?
**A.** 0.57%

**Q.** `Cn1nccc1Nc1nccc(-c2ccn(C(CO)c3ccc(Cl)c(F)c3)c(=O)c2)n1` (stereo unspecified) + Cc1nc(NC(=O)N2CCCC2C(N)=O)sc1-c1ccnc(C(C)(C)C(F)(F)F)c1 was tested. Which IC50 (second compound 0.0316 µM) did it give?
**A.** > 10000 nM

**Q.** And the IC50 (second compound 0.1 µM)?
**A.** 8610 nM

**Q.** And the IC50 (second compound 0.316 µM)?
**A.** > 10000 nM

**Q.** What about the IC50 (second compound 1 µM) of the same compound?
**A.** 3160 nM

**Q.** What about the IC50 (second compound 3.16 µM) of the same compound?
**A.** 853 nM

**Q.** And the IC50 (second compound 10 µM)?
**A.** < 31.6 nM

**Q.** What about the viability, T/C [1] of the same compound?
**A.** 82.9%

**Q.** What about the viability, T/C [2] of the same compound?
**A.** 98.6%

**Q.** And the viability, T/C [3]?
**A.** 73%

**Q.** What about the viability, T/C [4] of the same compound?
**A.** 91.6%

**Q.** And the viability, T/C [5]?
**A.** 68.9%

**Q.** What about the viability, T/C [6] of the same compound?
**A.** 58.2%

**Q.** What about the viability, T/C [7] of the same compound?
**A.** 92.6%

**Q.** What about the viability, T/C [8] of the same compound?
**A.** 100%

**Q.** And the viability, T/C [9]?
**A.** 68.7%

**Q.** And the viability, T/C [10]?
**A.** 83.3%

**Q.** What about the viability, T/C [11] of the same compound?
**A.** 82.7%

**Q.** And the viability, T/C [12]?
**A.** 45.2%

**Q.** And the viability, T/C [13]?
**A.** 94.6%

**Q.** What about the viability, T/C [14] of the same compound?
**A.** 63.8%

**Q.** And the viability, T/C [15]?
**A.** 67.9%

**Q.** And the viability, T/C [16]?
**A.** 65.7%

**Q.** What about the viability, T/C [17] of the same compound?
**A.** 57.7%

**Q.** And the viability, T/C [18]?
**A.** 47.8%

**Q.** What about the viability, T/C [19] of the same compound?
**A.** 89.2%

**Q.** What about the viability, T/C [20] of the same compound?
**A.** 81.5%

**Q.** And the viability, T/C [21]?
**A.** 31.1%

**Q.** And the viability, T/C [22]?
**A.** 57.6%

**Q.** And the viability, T/C [23]?
**A.** 52.3%

**Q.** What about the viability, T/C [24] of the same compound?
**A.** 64.8%

**Q.** What about the viability, T/C [25] of the same compound?
**A.** 68.2%

**Q.** What about the viability, T/C [26] of the same compound?
**A.** 58.7%

**Q.** What about the viability, T/C [27] of the same compound?
**A.** 54.8%

**Q.** What about the viability, T/C [28] of the same compound?
**A.** 53.8%

**Q.** And the viability, T/C [29]?
**A.** 38.4%

**Q.** And the viability, T/C [30]?
**A.** 34.8%

**Q.** And the viability, T/C [31]?
**A.** 33.8%

**Q.** And the viability, T/C [32]?
**A.** 35.6%

**Q.** What about the viability, T/C [33] of the same compound?
**A.** 46%

**Q.** What about the viability, T/C [34] of the same compound?
**A.** 22.7%

**Q.** What about the viability, T/C [35] of the same compound?
**A.** 14.5%

**Q.** And the viability, T/C [36]?
**A.** 17.5%
